Experimental data as given in article PMC5041986 (Oncotarget, 2016).
Where two headings read alike, the source gives them in different places.

Tests used:
[1] = test system: RT-112 cells; assay: MTT cell viability assay; type: cell-based; conditions: 72 h; for Viability (% of control cells) RT-112 (10 μM) / Viability (% of control cells) RT-112 (5 μM): mean
Description: (§3) Cells were seeded in 96-well plates and exposed to DMSO, or indicated compounds for 72 hours. Cell viability was assessed using the 3-(4,5-dimethylthiazol-2-yl)-2,5-diphenyltetrazolium bromide (MTT) assay as described previously [46]. Briefly, 100 μl of 0.5 mg/ml MTT were added to each well and incubated at 37°C for 1 hour. After that, 100 μl of extraction reagents (0.1 M sodium acetate buffer for suspension cells or DMSO for attached cells) were added to each well to lyse cells and absorbance at 550 nm was measured. Cell viability was expressed as the percentage of surviving cells in drug-treated versus DMSO-treated control cells (which was considered as 100% viability).

[2] = test system: RT-112 cells; assay: SA-β-galactosidase staining (senescence); type: cell-based
Description: Cells were seeded in 6-well plates and treated with indicated agents for 24h. Senescence was measured by Senescence β-Galactosidase Staining Kit according to the manufacture's instruction (Cell Signaling Technology, Danvers, MA, USA).

[3] = test system: T24 cells; assay: MTT cell viability assay; type: cell-based; conditions: Homo sapiens, T-24, T24 (bladder), 72 h
Description: as §3

[4] = test system: A549 cells; assay: MTT cell viability assay; type: cell-based; conditions: Homo sapiens, A549 (lung), 72 h
Description: as §3

[5] = test system: LC3B-I to LC3B-II conversion in RT-112 cells; assay: Western blot of autophagy marker LC3B; type: cell-based
Description: (§1) Cells were seeded and treated with indicated compounds at various concentrations for the indicated times. After treatment, cells were harvested by scraping with RIPA buffer containing protease inhibitors and phosphatase inhibitors (Roche Diagnostics Corp., Indianapolis, IN, USA). Total cell lysates were centrifuged at 13,000 g for 30 min and equal amounts of protein were separated by SDS–PAGE and immunoblotted with specific antibodies as previous described. The cells were allowed to recover for 24 h before following treatment. The small interfering RNA (siRNA) for Atg5 (HSS114103, HSS114104, HSS190366), and negative control (siCTL) were purchased from Invitrogen (Carlsbad, CA, USA). Transient transfection was performed by using lipofectamine 2000 according to the manufacture's instructions.

[6] = target: T1, TYK2 (Homo sapiens, UniProt P29597); assay: KINOMEscan competition-binding assay
T1 construct: purchased DiscoverRx (KINOMEscan service)
T1 sequence (P29597 whole entry): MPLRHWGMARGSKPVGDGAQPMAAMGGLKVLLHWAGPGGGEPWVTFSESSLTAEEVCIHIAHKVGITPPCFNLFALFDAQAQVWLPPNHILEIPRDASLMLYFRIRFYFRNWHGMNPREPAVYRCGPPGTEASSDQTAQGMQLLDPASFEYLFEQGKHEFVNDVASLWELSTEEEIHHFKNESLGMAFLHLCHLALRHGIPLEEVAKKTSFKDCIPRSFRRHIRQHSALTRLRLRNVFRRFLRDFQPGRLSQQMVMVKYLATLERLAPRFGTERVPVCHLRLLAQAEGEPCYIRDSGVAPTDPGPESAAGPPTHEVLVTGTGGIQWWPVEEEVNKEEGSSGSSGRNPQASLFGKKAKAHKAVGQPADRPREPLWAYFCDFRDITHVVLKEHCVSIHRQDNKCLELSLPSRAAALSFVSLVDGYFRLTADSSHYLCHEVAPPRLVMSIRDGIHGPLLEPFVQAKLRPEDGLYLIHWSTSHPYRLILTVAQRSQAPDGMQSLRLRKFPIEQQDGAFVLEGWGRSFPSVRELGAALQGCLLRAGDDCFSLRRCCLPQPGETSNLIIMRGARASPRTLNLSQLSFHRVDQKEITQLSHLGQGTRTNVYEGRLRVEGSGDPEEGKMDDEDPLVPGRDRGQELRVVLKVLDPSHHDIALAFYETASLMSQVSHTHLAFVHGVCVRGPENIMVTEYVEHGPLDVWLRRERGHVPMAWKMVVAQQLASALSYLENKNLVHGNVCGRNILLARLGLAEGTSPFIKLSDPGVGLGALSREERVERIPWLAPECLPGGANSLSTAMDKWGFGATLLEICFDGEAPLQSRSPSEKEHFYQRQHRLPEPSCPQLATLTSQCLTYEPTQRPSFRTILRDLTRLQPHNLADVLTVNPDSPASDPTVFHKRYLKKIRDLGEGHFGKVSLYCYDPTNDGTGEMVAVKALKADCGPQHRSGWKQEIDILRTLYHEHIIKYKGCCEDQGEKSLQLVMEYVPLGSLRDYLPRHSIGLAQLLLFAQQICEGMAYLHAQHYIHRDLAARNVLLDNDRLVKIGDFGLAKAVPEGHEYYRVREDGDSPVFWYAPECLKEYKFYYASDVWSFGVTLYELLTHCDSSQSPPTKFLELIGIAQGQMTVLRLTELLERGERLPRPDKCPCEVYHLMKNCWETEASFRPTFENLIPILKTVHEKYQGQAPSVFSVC
Description: (§2) The screening is based on a competition-binding assay and the K d values were determined as described previously.

[7] = target: T2, FGFR4 (Homo sapiens, UniProt P22455); assay: KINOMEscan competition-binding assay
T2 construct: purchased DiscoverRx (KINOMEscan service)
T2 sequence (P22455 22-802): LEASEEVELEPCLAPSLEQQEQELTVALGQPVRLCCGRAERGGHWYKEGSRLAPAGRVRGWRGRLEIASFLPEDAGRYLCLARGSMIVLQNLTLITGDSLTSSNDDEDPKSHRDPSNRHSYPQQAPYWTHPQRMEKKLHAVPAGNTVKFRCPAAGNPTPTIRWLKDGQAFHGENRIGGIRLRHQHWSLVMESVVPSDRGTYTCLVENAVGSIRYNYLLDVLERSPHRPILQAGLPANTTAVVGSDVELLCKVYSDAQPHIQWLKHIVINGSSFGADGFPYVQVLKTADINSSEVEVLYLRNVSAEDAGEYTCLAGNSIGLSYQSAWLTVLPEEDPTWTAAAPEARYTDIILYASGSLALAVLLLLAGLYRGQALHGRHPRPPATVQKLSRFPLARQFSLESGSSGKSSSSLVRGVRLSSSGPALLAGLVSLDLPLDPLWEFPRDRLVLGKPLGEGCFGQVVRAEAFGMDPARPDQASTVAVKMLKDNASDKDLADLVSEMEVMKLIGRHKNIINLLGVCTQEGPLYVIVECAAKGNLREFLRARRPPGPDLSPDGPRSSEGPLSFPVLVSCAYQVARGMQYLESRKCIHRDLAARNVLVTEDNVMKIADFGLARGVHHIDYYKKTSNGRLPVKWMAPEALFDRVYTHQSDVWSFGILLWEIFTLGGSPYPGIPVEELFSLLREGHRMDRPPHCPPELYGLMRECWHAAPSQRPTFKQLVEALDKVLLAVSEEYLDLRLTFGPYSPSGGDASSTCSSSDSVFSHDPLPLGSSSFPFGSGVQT
Description: as §2

[8] = target: T3, PDGFRB (Homo sapiens, UniProt P09619); assay: KINOMEscan competition-binding assay
T3 construct: purchased DiscoverRx (KINOMEscan service)
Description: as §2

[9] = target: T4, FGFR3 (Homo sapiens, UniProt P22607); assay: KINOMEscan competition-binding assay
T4 construct: purchased DiscoverRx (KINOMEscan service)
T4 sequence (P22607 23-806): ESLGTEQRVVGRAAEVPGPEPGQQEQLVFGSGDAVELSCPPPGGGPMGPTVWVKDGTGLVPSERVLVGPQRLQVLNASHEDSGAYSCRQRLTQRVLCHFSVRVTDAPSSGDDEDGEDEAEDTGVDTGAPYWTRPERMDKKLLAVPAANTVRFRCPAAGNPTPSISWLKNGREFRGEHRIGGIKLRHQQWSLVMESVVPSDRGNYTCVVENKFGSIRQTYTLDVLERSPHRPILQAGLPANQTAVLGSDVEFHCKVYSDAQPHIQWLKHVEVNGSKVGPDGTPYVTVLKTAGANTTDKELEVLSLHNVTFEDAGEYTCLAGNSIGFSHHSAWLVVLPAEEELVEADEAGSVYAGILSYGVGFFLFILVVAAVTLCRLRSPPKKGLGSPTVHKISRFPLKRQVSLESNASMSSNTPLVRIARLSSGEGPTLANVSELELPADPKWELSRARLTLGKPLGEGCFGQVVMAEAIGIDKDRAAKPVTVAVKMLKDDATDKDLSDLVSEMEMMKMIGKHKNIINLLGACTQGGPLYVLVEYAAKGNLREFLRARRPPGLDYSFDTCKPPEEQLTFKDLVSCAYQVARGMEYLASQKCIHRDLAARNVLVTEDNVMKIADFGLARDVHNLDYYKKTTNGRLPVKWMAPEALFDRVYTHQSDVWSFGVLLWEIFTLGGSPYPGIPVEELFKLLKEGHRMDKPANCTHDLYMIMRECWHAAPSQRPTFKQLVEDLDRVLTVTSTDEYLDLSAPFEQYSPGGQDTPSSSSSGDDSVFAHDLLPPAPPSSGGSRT
Description: as §2

[10] = target: T5, VEGFR2 (Homo sapiens, UniProt P35968); assay: KINOMEscan competition-binding assay
T5 construct: purchased DiscoverRx (KINOMEscan service)
Description: as §2

[11] = target: T6, FGFR1 (Homo sapiens, UniProt P11362); assay: KINOMEscan competition-binding assay
T6 construct: purchased DiscoverRx (KINOMEscan service)
T6 sequence (P11362 22-822): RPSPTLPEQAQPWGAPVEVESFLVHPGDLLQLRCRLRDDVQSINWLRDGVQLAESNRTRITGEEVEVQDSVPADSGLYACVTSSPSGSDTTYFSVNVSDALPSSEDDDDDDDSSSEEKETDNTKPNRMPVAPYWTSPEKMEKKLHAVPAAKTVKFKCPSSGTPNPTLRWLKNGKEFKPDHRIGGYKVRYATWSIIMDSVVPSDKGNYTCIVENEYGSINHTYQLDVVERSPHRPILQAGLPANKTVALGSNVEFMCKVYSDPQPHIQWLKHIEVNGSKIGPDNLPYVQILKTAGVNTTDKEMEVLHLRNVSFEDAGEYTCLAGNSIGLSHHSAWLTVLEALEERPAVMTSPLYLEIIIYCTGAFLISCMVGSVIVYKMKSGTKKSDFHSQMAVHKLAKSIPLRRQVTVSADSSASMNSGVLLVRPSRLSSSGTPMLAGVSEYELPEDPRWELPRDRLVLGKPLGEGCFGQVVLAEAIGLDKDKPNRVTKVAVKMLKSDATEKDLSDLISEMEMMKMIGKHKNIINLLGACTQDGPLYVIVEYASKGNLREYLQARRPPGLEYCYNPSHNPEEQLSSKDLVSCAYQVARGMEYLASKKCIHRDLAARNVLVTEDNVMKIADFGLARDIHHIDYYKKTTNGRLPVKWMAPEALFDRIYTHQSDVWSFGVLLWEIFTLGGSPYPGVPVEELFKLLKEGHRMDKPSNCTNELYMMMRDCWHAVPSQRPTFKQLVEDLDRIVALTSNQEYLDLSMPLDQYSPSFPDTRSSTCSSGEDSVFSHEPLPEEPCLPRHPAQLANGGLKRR
Description: as §2

[12] = target: T7, FLT3 (Homo sapiens, UniProt P36888); assay: KINOMEscan competition-binding assay
T7 construct: purchased DiscoverRx (KINOMEscan service)
T7 sequence (P36888 27-993): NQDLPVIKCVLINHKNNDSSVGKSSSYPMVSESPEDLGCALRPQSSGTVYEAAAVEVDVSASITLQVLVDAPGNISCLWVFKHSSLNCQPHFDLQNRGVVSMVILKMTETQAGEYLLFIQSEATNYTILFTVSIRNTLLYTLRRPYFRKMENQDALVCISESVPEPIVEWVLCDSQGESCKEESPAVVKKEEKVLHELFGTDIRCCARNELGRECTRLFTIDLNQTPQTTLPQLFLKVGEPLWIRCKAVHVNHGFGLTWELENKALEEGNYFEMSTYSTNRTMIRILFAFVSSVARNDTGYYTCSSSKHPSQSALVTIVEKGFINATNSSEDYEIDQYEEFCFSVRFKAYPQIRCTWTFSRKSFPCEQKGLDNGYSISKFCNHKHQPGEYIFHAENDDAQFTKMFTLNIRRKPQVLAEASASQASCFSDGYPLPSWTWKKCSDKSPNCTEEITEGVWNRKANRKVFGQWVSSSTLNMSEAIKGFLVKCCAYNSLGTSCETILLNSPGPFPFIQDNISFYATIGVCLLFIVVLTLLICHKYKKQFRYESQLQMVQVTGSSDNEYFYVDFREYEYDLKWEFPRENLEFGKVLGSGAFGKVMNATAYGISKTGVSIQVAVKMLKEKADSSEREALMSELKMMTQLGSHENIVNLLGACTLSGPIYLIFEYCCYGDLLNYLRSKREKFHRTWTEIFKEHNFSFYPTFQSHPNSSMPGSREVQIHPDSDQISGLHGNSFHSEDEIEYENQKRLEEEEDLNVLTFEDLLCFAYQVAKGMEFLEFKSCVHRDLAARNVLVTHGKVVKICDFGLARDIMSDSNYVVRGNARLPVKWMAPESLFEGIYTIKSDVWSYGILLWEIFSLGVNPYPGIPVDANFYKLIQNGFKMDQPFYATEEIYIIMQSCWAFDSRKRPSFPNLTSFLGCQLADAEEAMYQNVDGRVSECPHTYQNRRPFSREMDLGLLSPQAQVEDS
Description: as §2

[13] = target: T8, CSF1R (Homo sapiens, UniProt P07333); assay: KINOMEscan competition-binding assay
T8 construct: purchased DiscoverRx (KINOMEscan service)
Description: as §2

[14] = target: T9, Erbb2 (Homo sapiens, UniProt P04626); assay: KINOMEscan competition-binding assay
T9 construct: purchased DiscoverRx (KINOMEscan service)
Description: as §2

[15] = target: T10, FGFR2 (Homo sapiens, UniProt P21802); assay: KINOMEscan competition-binding assay
T10 construct: purchased DiscoverRx (KINOMEscan service)
Description: as §2

[16] = test system: FGFR-dependent versus FGFR-independent cells; assay: MTT cell viability assay, mean over cell line panel; type: cell-based
[17] = test system: KMS-11 cells; assay: MTT cell viability assay; type: cell-based; conditions: Homo sapiens, KMS-11 (myeloma), 72 h
Description: as §3

[18] = test system: phosphorylation of FGFR1, FGFR3, FRS2, ERK and AKT in RT-112 cells; assay: Western blot of FGFR signaling; type: cell-based
Description: as §1

[19] = test system: SNU-16 cells; assay: MTT cell viability assay; type: cell-based; conditions: 72 h; for Viability (% of control cells) SNU-16 (5 μM): mean
Description: as §3

[20] = test system: RT-112 cells; assay: Flow cytometric cell cycle analysis; type: cell-based; conditions: flow cytometry
Description: Cells were seeded in 6-well plates and treated with DMSO or indicated compounds at various concentrations for the indicated times. After treatment, the cells were harvested by trypsinization, washed with PBS, and the pellets were fixed in ice-cold 70% ethanol at -20°C overnight. After centrifugation, the cells were incubated for 15 minutes at room temperature in 0.1 mL of phosphate-citric acid buffer (0.2 M NaHPO4, 0.1 M citric acid, and pH 7.8) and then stained with propidium iodide staining buffer containing Triton X-100 (0.1%, v/v), RNase A (100 μg/mL), and propidium iodide (80 μg/mL) for 30 minutes in the dark. DNA contents were analyzed by flow cytometry with CellQuest software (Becton Dickinson, Mountain View, CA, USA). The results were obtained from three independent experiments and the representative data were shown in Supplementary Figure S8 and S9.

[21] = test system: HepG2 cells; assay: MTT cell viability assay; type: cell-based; conditions: Homo sapiens, HepG2 (liver), 72 h
Description: as §3

[22] = test system: PLC/PRF/5 cells; assay: MTT cell viability assay; type: cell-based; conditions: 72 h; for Viability (% of control cells) PLC5/PRF/5 (5 μM): mean
Description: as §3

[23] = test system: RT-112 tumor xenografts; assay: RT-112 xenograft model; type: in vivo; conditions: for tumor growth inhibition (% TGI): ip, qd, nude mice
Description: Tumors were measured weekly using calipers. Tumor volume (mm^3) was calculated from w^2×l/2 (w = width, l= length in mm of the tumor).

[24] = test system: FUDDLS cells; assay: MTT cell viability assay; type: cell-based; conditions: Homo sapiens, FUDDLS (sarcoma), 72 h
Description: as §3

[25] = test system: RT4 cells; assay: MTT cell viability assay; type: cell-based; conditions: Homo sapiens, RT-4, RT4 (bladder), 72 h
Description: as §3

[26] = test system: Hep3B cells; assay: MTT cell viability assay; type: cell-based; conditions: 72 h, mean
Description: as §3

[27] = test system: MDA-MB-231 cells; assay: MTT cell viability assay; type: cell-based; conditions: Homo sapiens, MDA-MB-231 (breast), 72 h
Description: as §3

[28] = test system: HCT-116 cells; assay: MTT cell viability assay; type: cell-based; conditions: Homo sapiens, HCT-116 (colorectal), 72 h
Description: as §3

[29] = test system: MCF-7 cells; assay: MTT cell viability assay; type: cell-based; conditions: Homo sapiens, MCF7, MCF-7 (breast), 72 h
Description: as §3

[30] = test system: RPMI-8226 cells; assay: MTT cell viability assay; type: cell-based; conditions: Homo sapiens, RPMI-8226 (myeloma), 72 h
Description: as §3

COc1c(Cl)c(NC(=O)N(C)c2cc(-c3cccnc3)ncn2)c(Cl)c(OC)c1Cl [MPT0L147]
Viability (% of control cells) RT-112 (10 μM) [1]: 85.0 % of control cells

COc1cccc2c1C(=O)c1c(O)c3c(c(O)c1C2=O)C[C@@](O)(C(=O)CO)C[C@@H]3O[C@H]1C[C@H](N)[C@H](O)[C@H](C)O1 [doxorubicin, reference compound]
senescence (β-galactosidase activity) [2]: increased β-galactosidase activity

CCN1CCN(c2ccc(Nc3ncnc(N(C)C(=O)Nc4c(Cl)c(OC)c(Cl)c(OC)c4Cl)n3)cc2)CC1 [MPT0L145]
IC50 [3]: 6 ± 0.5 µM | IC50 [4]: 5.97 ± 0.1 µM | conversion of LC3B-I to LC3B-II [5]: induced the conversion of LC3B-I to LC3B-II in a time- and concentration-dependent manner | Kd [6]: 660 nM | Kd [7]: 7.5 µM | Kd [8]: 680 nM | Kd [9]: 270 nM | Kd [10]: 3.1 µM | Kd [11]: 130 nM | Kd [12]: 1300 nM | Kd [13]: 340 nM | Kd [14]: 10 µM | Kd [15]: 670 nM | IC50 ([16]; mean over FGFR-dependent cell lines, read-out: mean IC50 in FGFR-dependent cells): 1.83 µM | IC50 ([16]; mean over FGFR-independent cell lines, read-out: mean IC50 in FGFR-independent cells): 6.74 µM | senescence (β-galactosidase activity) [2]: no appreciable senescence | IC50 [17]: 2050 ± 110 nM | auto-phosphorylation of FGFR1 and FGFR3 and docking protein FRS2 ([18]; 1 h): exerted inhibitory activity | phosphorylation of ERK and AKT ([18]; 8 h): fully repressed | IC50 ([19]; Homo sapiens, SNU-16 (gastric)): 650 ± 70 nM | Viability (% of control cells) SNU-16 (5 μM) [19]: 36.9 % of control cells | G0/G1 cell cycle arrest ([20]; 4 μM, 24 h): induced G0/G1 cell cycle arrest to a dramatic extent | accumulation of the sub-G1 phase (apoptotic cell death) ([20]; 48 h to 72 h): did not promote accumulation of the sub-G1 phase | IC50 [21]: 1180 ± 160 nM | IC50 ([22]; Homo sapiens, PLC/PRF/5 (liver)): 1480 ± 300 nM | Viability (% of control cells) PLC5/PRF/5 (5 μM) [22]: 20.6 % of control cells | tumor growth inhibition (% TGI) ([23]; 5 mg/kg): 61.4% | tumor growth inhibition (% TGI) ([23]; 10 mg/kg): 74.6% | safety from assessment of body weight loss after treatment ([23]; compared with cisplatin): better safety | IC50 ([1]; Homo sapiens, RT-112 (bladder)): 1630 ± 10 nM | Viability (% of control cells) RT-112 (5 μM) [1]: 33.4 % of control cells | Viability (% of control cells) RT-112 (10 μM) [1]: 8.5 % of control cells | IC50 [24]: 4.74 ± 0.49 µM | IC50 [25]: 4 ± 0.58 µM | Viability (% of control cells) Hep3B (5 μM) [26]: 66.2 % of control cells | IC50 [27]: 6.04 ± 0.26 µM | IC50 [28]: 6.12 ± 0.01 µM | IC50 [29]: 5.98 ± 0.68 µM | IC50 [30]: 8.51 ± 1.77 µM

COc1c(Cl)c(NC(=O)N(C)c2cc(-c3ccco3)ncn2)c(Cl)c(OC)c1Cl [MPT0L154]
Viability (% of control cells) RT-112 (10 μM) [1]: 76.1 % of control cells

CCN1CCN(c2ccc(-c3cc(N(C)C(=O)Nc4c(Cl)c(OC)c(Cl)c(OC)c4Cl)ncn3)cc2)CC1 [MPT0L182]
Viability (% of control cells) SNU-16 (5 μM) [19]: 63.2 % of control cells | Viability (% of control cells) PLC5/PRF/5 (5 μM) [22]: 78.3 % of control cells | Viability (% of control cells) RT-112 (5 μM) [1]: 95.6 % of control cells | Viability (% of control cells) RT-112 (10 μM) [1]: 8.6 % of control cells | Viability (% of control cells) Hep3B (5 μM) [26]: 96.3 % of control cells

COc1c(Cl)c(NC(=O)N(C)c2cc(-c3ccc(F)cc3)ncn2)c(Cl)c(OC)c1Cl [MPT0L155]
Viability (% of control cells) SNU-16 (5 μM) [19]: 80.5 % of control cells | Viability (% of control cells) PLC5/PRF/5 (5 μM) [22]: 55.3 % of control cells | Viability (% of control cells) RT-112 (5 μM) [1]: 92.6 % of control cells | Viability (% of control cells) RT-112 (10 μM) [1]: 44.4 % of control cells | Viability (% of control cells) Hep3B (5 μM) [26]: 72.8 % of control cells

COc1c(Cl)c(NC(=O)N(C)c2cc(-c3cccc([N+](=O)[O-])c3)ncn2)c(Cl)c(OC)c1Cl [MPT0L151]
Viability (% of control cells) RT-112 (10 μM) [1]: 63.8 % of control cells
